Assay results taken from patent US9345742B2, “Aminostatin derivatives for the treatment of arthrosis” (MERCK PATENT GMBH, priority 2011, dated 2016).
Numbered stars: 1 amine (or outer) side, 2 acyl side, 3 side chain; on linkers, the order of the positions; unused ones are H or OH. Square brackets hold non-standard residues; d marks the D form. Peptide text beside a SMILES is read from it. * marks the point of attachment. X1 = N[C@@H](CC(=O)[*:2])[C@H](Cc1ccccc1)N[*:1]; Tle = CC(C)(C)[C@H](N)C(=O)O; Isovaleryl = CC(C)CC(=O)*; Ac3c = NC1(C(=O)O)CC1

How the values were obtained:
[1] = target: cathepsin D isolated from the human liver (Homo sapiens (Human), UniProt P07339); test: In-vitro fluorescence assay for identification of cathepsin D inhibitors; format: biochemical; conditions: cathepsin D 1.4 nM, pH 5.5; read-out: CatD assay IC50-
Experimental: In order to identify modulators of cathepsin D activity, a continuous enzymatic test was carried out with a synthetic peptide which carries a fluorescent group (MCA=(7-methoxycoumarin-4-yl)acetyl) which is quenched by energy transfer from a Dpn (2,4 dinitrophenyl) group on the same molecule, in Greiner 384-well nb microtitre plates. Cleavage of the peptidic substrate by cathepsin D causes an increase in the fluorescence intensity. In order to determine the efficacy of substances, the time-dependent increase in the fluorescence intensity in the presence of the substance was compared with the time-dependent increase in fluorescence in the absence of substances. The reference substance used was pepstatin A (Sigma-Aldrich). The substrate used was […](Dnp)d-R—NH2 (Enzo Life Sciences, Lörrach). The enzyme employed was cathepsin D isolated from the human liver (Sigma-Aldrich) in a final concentration of 1.4 nM. The test was carried out in 100 mM sodium acetate buffer, 1.25% (v/v) of DMSO, 0.25% (w/v) of Chaps, pH 5.5. 2 μl of each substance solution with serially diluted substance concentration were added to in each case 4 μl of cathepsin D solution and incubated at room temperature for 10 min. The reaction was started by addition of 2 μl of substrate solution (final concentration 5 μM). After carrying out a starting-point fluorescence measurement (excitation wavelength 340 nm/emission wavelength 450 nm) using an Envision multilabel reader (Perkin Elmer), the reaction was incubated at room temperature for 60 min. The amount of peptide fragment cleaved off during the reaction time was subsequently measured by determination of the increase in the fluorescence intensity at 450 nm (excitation wavelength 340 nm).

recombinant human renin = recombinant human renin (Homo sapiens (Human), UniProt P00797); test: In-vitro fluorescence assay for identification of renin-inhibitory activity; format: biochemical; conditions: recombinant human renin 10 nM, pH 7.2; read-out: Renin selectivity IC50
Experimental: In order to identify modulators of renin activity, a continuous enzymatic test was carried out with a synthetic peptide which carries a fluorescent group Edans (=(5-(aminoethyl)aminonaphthalenesulfonate) which is quenched by energy transfer from a Dabcyl (4′-dimethylaminoazobenzene-4-carboxylate) group on the same molecule, in Greiner 384-well microtitre plates. Cleavage of the peptidic substrate by renin causes an increase in the fluorescence intensity. In order to determine the efficacy of substances, the time-dependent increase in the fluorescence intensity in the presence of the substance was compared with the time-dependent increase in fluorescence in the absence of substances. The reference substance used was renin inhibitor 2 (Z-Arg-Arg-Pro-Phe-His-Sta-Ile-His N-Boc-Lys methyl ester Z) (Sigma-Aldrich). The substrate used was renin FRET substrate I (DABCYL-g-Abu-[…]EDANS) (Anaspec, Fremont Calif.). The enzyme employed was recombinant human renin (Proteos, Kalamazoo, Mich.) in a final concentration of 10 nM. The test was carried out in 50 mM Mops buffer, 1.5% (v/v) of DMSO, 0.1% (w/v) of Igepal®, pH 7.2, 0.5% (w/v) of BSA. 2 μl of each substance solution with serially diluted substance concentration were added to in each case 4 μl of renin solution and incubated at room temperature for 15 min. The reaction was started by addition of 4 μl of substrate solution (final concentration 5 μM). After carrying out a starting-point fluorescence measurement (excitation wavelength 340 nm/emission wavelength 495 nm) using an Envision multilabel reader (Perkin Elmer), the reaction was incubated at 37° C. for 60 min. The amount of peptide fragment cleaved off during the reaction time was subsequently measured by determination of the increase in the fluorescence intensity at 495 nm (excitation wavelength 340 nm).

Sequence of recombinant human renin (P00797 67-406): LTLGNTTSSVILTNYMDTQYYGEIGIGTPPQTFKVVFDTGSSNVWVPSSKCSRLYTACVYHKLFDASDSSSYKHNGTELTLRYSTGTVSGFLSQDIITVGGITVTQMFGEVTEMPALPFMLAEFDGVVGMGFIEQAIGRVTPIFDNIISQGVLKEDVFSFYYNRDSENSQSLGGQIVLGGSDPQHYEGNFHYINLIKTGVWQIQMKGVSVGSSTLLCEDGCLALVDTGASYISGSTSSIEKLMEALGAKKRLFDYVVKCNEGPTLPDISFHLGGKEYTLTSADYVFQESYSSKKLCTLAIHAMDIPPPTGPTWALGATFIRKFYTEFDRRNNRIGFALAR
Sequence of cathepsin D isolated from the human liver (P07339 65-161): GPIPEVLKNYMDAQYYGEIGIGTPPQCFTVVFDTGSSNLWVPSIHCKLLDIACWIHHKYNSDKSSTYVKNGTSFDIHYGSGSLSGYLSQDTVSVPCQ
Sequence of cathepsin D isolated from the human liver (P07339 169-412): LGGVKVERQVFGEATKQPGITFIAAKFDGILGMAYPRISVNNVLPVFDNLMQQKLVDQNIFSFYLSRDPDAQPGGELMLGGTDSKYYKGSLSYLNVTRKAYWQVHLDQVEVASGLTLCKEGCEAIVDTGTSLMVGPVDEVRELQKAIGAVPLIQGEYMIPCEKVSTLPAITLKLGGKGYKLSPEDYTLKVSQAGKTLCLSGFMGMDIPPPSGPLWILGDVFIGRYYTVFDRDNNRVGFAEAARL

Row | IC50 [1] [µM] | IC50 (recombinant human renin) [µM] | Compound
1 | 0.23 | > 30 | CCc1cccc(CC)c1NC(=O)C[C@H](N)[C@H](Cc1ccccc1)NC(=O)[C@@H](NC(=O)[C@H](CC(C)C)NC(=O)CC(C)C)C(C)C [Compound 38, N-(2,6-Diethylphenyl)-(3S,4S)-3-amino-4-{(S)-3-methyl-2-[(S)-4-methyl-2-(3-methyl-butyrylamino)pentanoylamino]butyryl-amino}-5-phenylpentanamide]
2 | 0.11 | > 30 | CCOC(=O)C1(NC(=O)[C@@H](NC(=O)C[C@H](N)[C@H](Cc2ccccc2)NC(=O)[C@@H](NC(=O)[C@H](CC(C)C)NC(=O)CC(C)C)C(C)C)[C@@H](C)CC)CC1 [Compound 12, Ethyl 1-[(2S,3S)-2-((S)-3-(S)-amino-4-((S)-3-methyl-2-[(S)-4-methyl-2-(3-methyl-butyrylamino)pentanoylamino]butyryl-amino}-5-phenylpentanoylamino)-3-methyl-pentanoylamino] cyclopropanecarboxylate] (Isovaleryl-LV[X1]I[Ac3c]-OEt)
3 | 1.2 | > 30 | CC[C@H](NC(=O)[C@H](CC(C)C)NC(=O)CC(C)C)C(=O)N[C@@H](Cc1ccccc1)[C@@H](N)CC(=O)NCCc1ccc(Cl)c(Cl)c1 [Compound 6, N-[2-(3,4-Dichlorophenyl)ethyl]-(3S,4S)-3-amino-4-{(S)-2-[(S)-4-methyl-2-(3-methyl-butyrylamino)pentanoylamino]butyryl-amino}-5-phenylpentanamide]
4 | 0.8 | > 30 | CCc1cccc(CC)c1NC(=O)C[C@H](N)[C@H](Cc1ccccc1)NC(=O)[C@@H](NC(=O)CCCc1ccccc1)C(C)C [Compound 40, N-(2,6-Diethylphenyl)-(3S,4S)-3-amino-4-[(S)-3-methyl-2-(4-phenylbutyrylamino)butyrylamino]-5-phenylpentanamide]
5 | 0.4 | > 30 | CC[C@H](C)[C@H](NC(=O)C[C@H](N)[C@H](Cc1ccccc1)NC(=O)[C@@H](NC(=O)[C@H](CC(C)C)NC(=O)CC(C)C)C(C)C)C(=O)NCC1CC1 [Compound 30, N-[(1S,2S)-1-(Cyclopropylmethyl-carbamoyl)-2-methylbutyl]-(S)-3-(S)-amino-4-{(S)-3-methyl-2-[(S)-4-methyl-2-(3-methylbutyrylamino)-pentanoylamino]butyrylamino}-5-phenylpentanamide]
6 | 0.61 | > 30 | CC[C@H](C)[C@H](NC(=O)C[C@H](N)[C@H](Cc1ccccc1)NC(=O)[C@H](Cc1ccccc1)NC(=O)[C@H](CC(C)C)NC(=O)CC(C)C)C(=O)N[C@H](C(=O)OC)C(C)C [Compound 11, Methyl (S)-2-[(2S,3S)-2-((3S,4S)-3-amino-4-{(S)-2-[(S)-4-methyl-2-(3-methylbutyrylamino)pentanoylamino]-3-phenyl-propionylamino}-5-phenylpentanoylamino)-3-methylpentanoylamino]-3-methyl-butyrate] (Isovaleryl-LF[X1]IV-OMe)
7 | 0.19 | > 30 | CC(C)CCNC(=O)[C@H](C)NC(=O)C[C@H](N)[C@H](Cc1ccccc1)NC(=O)[C@@H](NC(=O)Cc1cccc(OC(F)(F)F)c1)C(C)C [Compound 35, N-[(S)-1-(3-Methylbutylcarbamoyl)-ethyl]-(3S,4S)-3-amino-4-{(S)-3-methyl-2-[2-(3-trifluoromethoxyphenyl)acetylamino]-butyrylamino}-5-phenylpentanamide]
8 | 0.12 | > 30 | CC[C@H](C)[C@H](NC(=O)C[C@H](N)[C@H](Cc1ccccc1)NC(=O)[C@@H](NC(=O)[C@H](CC(C)C)NC(=O)CC(C)C)C(C)(C)C)C(=O)N[C@H](C(=O)OC)C(C)C [Compound 31, Methyl (S)-2-[(2S,3S)-2-((3S,4S)-3-amino-4-{(S)-3,3-dimethyl-2-[(S)-4-methyl-2-(3-methylbutyrylamino)pentanoylamino]-butyrylamino}-5-phenylpentanoylamino)-3-methylpentanoylamino]-3-methylbutyrate] (Isovaleryl-L[Tle][X1]IV-OMe)
9 | 0.048 | > 30 | CC[C@H](C)[C@H](NC(=O)Cc1cccc(OC(F)(F)F)c1)C(=O)N[C@@H](Cc1ccccc1)[C@@H](N)CC(=O)N[C@H](C(=O)N[C@H](CO)C(C)C)[C@@H](C)CC [Compound 41, N-{(2S,3S)-1-[1-((S)-Hydroxymethyl)-2-methylpropylcarbamoyl]-2-methylbutyl)-3-(S)-amino-4-{(S)-(2S,3S)-3-methyl-2-[2-(3-trifluoromethoxyphenyl)acetylamino]-pentanoylamino}-5-phenylpentanamide]
10 | 0.2 | > 30 | CC[C@H](C)[C@H](NC(=O)C[C@H](N)[C@H](Cc1ccccc1)NC(=O)[C@@H](NC(=O)COc1cccc2ccccc12)C(C)C)C(=O)N[C@H](C(=O)OC)C(C)C [Compound 8, Methyl (S)-2-[(2S,3S)-2-((3S,4S)-3-amino-4-{(S)-3-methyl-2-[2-(naphthalen-1-yloxy)-acetylamino]butyrylamino}-5-phenyl-pentanoylamino)-3-methylpentanoyl-amino]-3-methylbutyrate]
11 | 0.012 | > 30 | CC[C@H](C)[C@H](NC(=O)C[C@H](N)[C@H](Cc1ccccc1)NC(=O)[C@@H](NC(=O)Cc1cccc(OC(F)(F)F)c1)C(C)C)C(=O)N[C@H](C(=O)O)C(C)C [Compound 32, (S)-2-[(2S,3S)-2-((3S,4S)-3-Amino-4-{(S)-3-methyl-2-[2-(3-trifluoromethoxyphenyl)-acetylamino]butyrylamino}-5-phenyl-pentanoylamino)-3-methylpentanoyl-amino]-3-methylbutyric acid]
12 | 0.0057 | > 30 | COC(=O)[C@@H](NC(=O)[C@H](Cc1ccccc1)NC(=O)C[C@H](N)[C@H](Cc1ccccc1)NC(=O)[C@@H](NC(=O)[C@H](CC(C)C)NC(=O)CC(C)C)C(C)C)C(C)C [Compound 15, Methyl (S)-2-[(S)-2-((3S,4S)-3-amino-4-{(S)-3-methyl-2-[(S)-4-methyl-2-(3-methyl-butyrylamino)pentanoylamino]butyryl-amino)-5-phenylpentanoylamino)-3-phenyl-propionylamino]-3-methylbutyrate] (Isovaleryl-LV[X1]FV-OMe)
13 | 0.24 | > 30 | CC(C)CC(=O)N[C@@H](CC(C)C)C(=O)N[C@H](C(=O)N[C@@H](Cc1ccccc1)[C@@H](N)CC(=O)N[C@H](COc1cccnc1)C(C)C)C(C)C [Compound 43, N-[(S)-2-Methyl-1-(pyridin-3-yloxymethyl)propyl]-(3S,4S)-3-amino-4-{(S)-3-methyl-2-[(S)-4-methyl-2-(3-methylbutyrylamino)-pentanoylamino]butyrylamino}-5-phenylpentanamide]
14 | 0.18 | > 30 | CC[C@H](C)[C@H](NC(=O)C[C@H](N)[C@H](Cc1ccccc1)NC(=O)[C@@H](NC(=O)[C@H](CC(C)C)NC(=O)CC(C)C)C(C)C)C(=O)NCc1ccccc1 [Compound 29, N-((1S,2S)-1-Benzylcarbamoyl-2-methylbutyl)-(S)-3-amino-4-{(S)-(S)-3-methyl-2-[(S)-4-methyl-2-(3-methylbutyrylamino)-pentanoylamino]butyrylamino}-5-phenylpentanamide]
15 | 0.081 | > 30 | CC[C@H](C)[C@H](NC(=O)C[C@H](N)[C@H](Cc1ccccc1)NC(=O)[C@@H](NC(=O)Cc1cccc(NS(C)(=O)=O)c1)C(C)C)C(=O)N[C@H](C(=O)OC)C(C)C [Compound 9, Methyl (S)-2-[(2S,3S)-2-((3S,4S)-3-amino-4-{(S)-2-[2-(3-methanesulfonylamino-phenyl)-acetylamino]-3-methylbutyrylamino}-5-phenylpentanoylamino)-3-methyl-pentanoylamino]-3-methylbutyrate]
